#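 These data come from cells grown in 96-well plates and exposed to compound for 48 hours at five concentrations. TGI denotes the concentration required for complete inhibition of growth.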
# Legend:
# Test in all cases: DTP human tumour cell line panel, 48 h
# [1] = test system: HCT-15 colon
# [2] = test system: HT29 colon
# [3] = test system: MOLT-4 leukemia
# [4] = test system: NCI-H226 lung
# [5] = test system: NCI-H23 lung
# [6] = test system: 786-0 renal
# [7] = test system: UACC-257 melanoma
# [8] = test system: SW-620 colon
# [9] = test system: PC-3 prostate
# [10] = test system: DU-145 prostate
# [11] = test system: KM12 colon
# [12] = test system: NCI-H522 lung
# [13] = test system: HCT-116 colon
# [14] = test system: HS 578T breast
# [15] = test system: SK-MEL-2 melanoma
# [16] = test system: MDA-MB-231 breast
# [17] = test system: SF-539 CNS
# [18] = test system: OVCAR-3 ovarian
# [19] = test system: A549 NSCLC
# [20] = test system: HL-60(TB) leukemia
# [21] = test system: ACHN renal
# [22] = test system: MCF7 breast
# [23] = test system: UO-31 renal
# [24] = test system: EKVX NSCLC
# [25] = test system: IGROV1 ovarian
# [26] = test system: OVCAR-8 ovarian
# [27] = test system: MDA-MB-435
# [28] = test system: U251 CNS
# [29] = test system: T-47D breast
# [30] = test system: OVCAR-4 ovarian
# [31] = test system: RXF 393 renal
# [32] = test system: SF-295 CNS
# [33] = test system: COLO 205 colon
# [34] = test system: MALME-3M melanoma
# [35] = test system: OVCAR-5 ovarian
# [36] = test system: NCI-H460 lung
# [37] = test system: HOP-62 NSCLC
# [38] = test system: SNB-19 CNS
# [39] = test system: NCI/ADR-RES ovarian
# [40] = test system: SF-268 CNS
# [41] = test system: CAKI-1 renal
# [42] = test system: SNB-75 CNS
# [43] = test system: M14 melanoma
# [44] = test system: SR leukemia
# [45] = test system: SN12C renal
# [46] = test system: SK-OV-3 ovarian
# [47] = test system: SK-MEL-5 melanoma
# [48] = test system: UACC-62 melanoma
# [49] = test system: SK-MEL-28 melanoma
# [50] = test system: LOX IMVI melanoma
# [51] = test system: TK-10 renal
# [52] = test system: K-562 leukemia
smiles,measurement,setting,value
OCN(CO)c1ccc2c(c1)Cc1cc(F)ccc1-2,TGI,[1],41.9 µM
same,TGI,[2],27.9 µM
same,TGI,[3],75.8 µM
same,TGI,[4],40.3 µM
same,TGI,[5],93.7 µM
same,TGI,[6],> 100 µM
same,TGI,[7],37.2 µM
same,TGI,[8],25.4 µM
same,TGI,[9],36.2 µM
same,TGI,[10],50.2 µM
same,TGI,[11],35.4 µM
same,TGI,[12],37.4 µM
same,TGI,[13],> 100 µM
same,TGI,[14],33.9 µM
same,TGI,[15],45.9 µM
same,TGI,[16],32.9 µM
same,TGI,[17],36.8 µM
same,TGI,[18],27.4 µM
same,TGI,[19],47.3 µM
same,TGI,[20],78.4 µM
same,TGI,[21],36.4 µM
same,TGI,[22],42.7 µM
same,TGI,[23],59.9 µM
same,TGI,[24],41.5 µM
same,TGI,[25],43 µM
same,TGI,[26],40.5 µM
same,TGI,[27],36.8 µM
same,TGI,[28],34.8 µM
same,TGI,[29],36.1 µM
same,TGI,[30],45.7 µM
same,TGI,[31],> 100 µM
same,TGI,[32],30.1 µM
same,TGI,[33],24.9 µM
same,TGI,[34],52.4 µM
same,TGI,[35],46.8 µM
same,TGI,[36],65.1 µM
same,TGI,[37],> 100 µM
same,TGI,[38],44 µM
same,TGI,[39],51.4 µM
same,TGI,[40],81.3 µM
same,TGI,[41],44.6 µM
same,TGI,[42],56.3 µM
same,TGI,[43],60.9 µM
same,TGI,[44],39.3 µM
same,TGI,[45],38.6 µM
same,TGI,[46],95.9 µM
same,TGI,[47],23.3 µM
same,TGI,[48],38.1 µM
same,TGI,[49],88.7 µM
same,TGI,[50],31.7 µM
same,TGI,[51],39.2 µM
same,TGI,[52],39.9 µM
